# Test results from US20060210622A1, “Surface modified particulate compositions of biologically active substances” (Skyepharma Canada Inc., priority 1999, published 2006).
# Assays:
# [1] = physchem; type: physicochemical
# Protocol: Solubility of biologically active substances, particularly drug substances in lipophilic and hydrophilic solvents. […] The solvents mentioned in the following table were evaluated. Solubilities, determined by high performance liquid chromatography (HPLC) assay of the dissolved drug in water and several non-aqueous vehicles, are given the following table in units of mg/mL. Low solubility of this drug in either water or organic solvents renders it suitable for formulating as a stable surface modified particulate dispersion in a non-aqueous carrier system.
# [2] = Precipitation behavior of benzyl benzoate solution transferred to water, optical microscope under polarized light; type: physicochemical
# Description: A portion of the ursodiol solution in benzyl benzoate was transferred to water and shaken. A mixture containing oily droplets resulted. […] This observation makes it possible to further prepare compositions of ursodiol utilizing appropriate solvent system and surface active agents so that micron-sized particle will be generated spontaneously upon addition of these compositions in aqueous media.
Solubility in pharmaceutically acceptable lipophilic vehicles [1],"solubility ([1]; water, Solubility of Itraconazole) [µg/mL]","Size of crystalline particles observed in the mixture ([2]; benzyl benzoate solution in water, optical microscope, polarized light)",Precipitation on transfer of solution to water ([2]; benzyl benzoate solution transferred to water and shaken),Structure (SMILES)
very poorly soluble,10,–,–,CCC(C)n1ncn(-c2ccc(N3CCN(c4ccc(OCC5COC(Cn6cncn6)(c6ccc(Cl)cc6Cl)O5)cc4)CC3)cc2)c1=O (stereo not shown) [Itraconazole]
–,–,below 10 micron,No precipitation was seen occurring,C[C@H](CCC(=O)O)[C@H]1CC[C@H]2[C@@H]3[C@@H](O)C[C@@H]4C[C@H](O)CC[C@]4(C)[C@H]3CC[C@]12C [ursodiol]
